Reference: patent US20250179062A1, “CRYSTALLINE FORMS OF A PYRROLOPYRIDINE-ANILINE COMPOUND” (NFLECTION THERAPEUTICS, INC., priority 2021, published 2025)
“Also recorded” adds a separate entry of the source. Read-outs that look alike come from different tables or passages of the source. Blank lines part the entries; values can stand above or below the molecule they belong to.

Key:
[1] = Approximate solubility, visually estimated by solvent aliquot addition; type: physicochemical; conditions: ambient temperature; for solubility: thermodynamic from solid
Description: A lot of the compound of formula (I) containing a mixture of Forms A and B was used for this study. Measured aliquots of a variety of solvents were added to weighed amounts of the material with sonication until the solution appeared clear or the maximum volume of the vial was reached. Solubility was calculated based on the total solvent used to give a solution. […] Values are rounded to the nearest whole number. […] If dissolution occurred as determined by the visual assessment after the addition of the first aliquot, the value is reported as “>”.

[2] = Dynamic vapor sorption (DVS); type: physicochemical
Description: Automated vapor sorption (VS) data were collected on a Surface Measurement System DVS Intrinsic instrument. Samples were not dried prior to analysis. Sorption and desorption data were collected over a range from 5% to 95% RH at 10% RH increments under a nitrogen purge. The equilibrium criterion used for analysis was less than 0.0100% weight change in 5 minutes with a maximum equilibration time of 3 hours. Data were not corrected for the initial moisture content of the samples. Post-analysis sample was submitted for XRPD analysis.

[3] = Binary competitive interconversion slurry experiments; type: physicochemical; conditions: between room temperature and 50° C.
Description: Alternatively, interconversion experiments were performed to determine the thermodynamic relationship between polymorphs. […] Clarendon Press, Oxford, 2006; and Polymorphism in Pharmaceutical Solids. Brittain, Harry G. ed. Marcek Dekker, Inc. New York. 1999]. […] The choice of solvent affects the kinetics of polymorph conversion and not the thermodynamic relationship between polymorphic forms [Gu, C H., Young, V. Jr., Grant, D J. J. Pharm. Sci. 2001, 90 (11): 1878-1890].
Slurries were prepared at ambient and 50° C. using binary mixtures of Forms A/F, A/E, and E/F. Saturated solutions of the compound of formula (I) were generated in EtOAc or ACN at RT or 50° C. The solutions were filtered and approximately equivalent quantities of two of the polymorphs were added to the solutions. The samples were slurried for several days at the given temperature and the solids were collected by positive pressure filtration, or centrifugation/decantation. The solids were harvested and analyzed by an XRPD.

[4] = Physical stability of crystalline forms (XRPD after stress); type: physicochemical
Description: Physical stability of Form A was investigated.
Physical stability of Form F was investigated.
Physical stability of Form B was investigated.
Physical stability of Form C was investigated.
Because the solids of Form H were originally isolated damp with excess MeOH (see Example 7), an attempt to remove the excess solvent under vacuum (i.e., room temperature for 2 days) was performed.

[5] = as above; type: physicochemical; conditions: higher temperature (e.g., 178° C.)
[6] = clinical trials, systemic MEK inhibitor; cited from earlier work
[7] = 90% RH at ambient temperature over 7 days

solubility ([1]; aqueous with cosolvent or surfactant or cyclodextrin, 1:1 THF/H2O (v/v) (aw = 1.04), lot containing mixture of Forms A and B, read-out: Solubility): 11000 µg/mL | solubility ([1]; aqueous with cosolvent or surfactant or cyclodextrin, 3:1 acetone/H2O (v/v) (aw = 0.85), lot containing mixture of Forms A and B, read-out: Solubility): 5000 µg/mL | Solubility term ([1]; in heptane, H2O, and toluene): low solubility | solubility ([1]; organic solvent or mixture, ACN, lot containing mixture of Forms A and B, read-out: Solubility): 2000 µg/mL | solubility ([1]; organic solvent or mixture, DCM, lot containing mixture of Forms A and B, read-out: Solubility): 6000 µg/mL | solubility ([1]; organic solvent or mixture, EtOAc, lot containing mixture of Forms A and B, read-out: Solubility): 3000 µg/mL | solubility ([1]; organic solvent or mixture, EtOH, lot containing mixture of Forms A and B, read-out: Solubility): 3000 µg/mL | solubility ([1]; organic solvent or mixture, MeOH, lot containing mixture of Forms A and B, read-out: Solubility): 11000 µg/mL | solubility ([1]; organic solvent or mixture, THF, lot containing mixture of Forms A and B, read-out: Solubility): 29000 µg/mL | solubility ([1]; organic solvent or mixture, acetone, lot containing mixture of Forms A and B, read-out: Solubility): 8000 µg/mL | solubility ([1]; organic solvent or mixture, heptane, lot containing mixture of Forms A and B, read-out: Solubility): < 1000 µg/mL | solubility ([1]; organic solvent or mixture, in acetone, ACN, DCM, EtOAc, EtOH, MeOH, 3:1 v/v acetone/H2O, and 1:1 v/v THF/H2O, read-out: Solubility term): 1000 to 20000 µg/mL | solubility ([1]; organic solvent or mixture, toluene, lot containing mixture of Forms A and B, read-out: Solubility): < 1000 µg/mL | solubility ([1]; water, H2O, lot containing mixture of Forms A and B, read-out: Solubility): < 1000 µg/mL
SMILES: Cn1c(Nc2ccc(I)cc2F)c(C(=O)NOCCO)c2cccnc21 [Compound of Formula (I)]

Hygroscopicity term ([2]; 5-95% RH): limited hygroscopicity | post-DVS XRPD form ([2]; solid after DVS cycle): Form A | Physical stability [4, 7]: stable | Physical stability ([4]; one (1) day at ambient temperature under vacuum): stable
SMILES: Cn1c(Nc2ccc(I)cc2F)c(C(=O)NOCCO)c2cccnc21 [Form A]
Relative thermodynamic stability of anhydrous forms [3]: most thermodynamically stable form; also recorded: more stable relative to Form E or F

Physical stability ([4]; under vacuum at ambient temperature over 2 days): stable
SMILES: Cn1c(Nc2ccc(I)cc2F)c(C(=O)NOCCO)c2cccnc21 [Form B]
Form conversion by in situ variable temperature XRPD (vtXRPD) [5]: converts/crystallizes to anhydrous Form E | Physical stability ([4]; exposure to 45° C. (elevated temperature) under vacuum): disordered; also recorded: slightly disordered XRPD pattern with additional unidentified peaks

Physical stability ([4]; about 42° C. for one day or about 45° C. for three days, under vacuum): slightly disordered
SMILES: Cn1c(Nc2ccc(I)cc2F)c(C(=O)NOCCO)c2cccnc21 [Form C]

SMILES: Cn1c(Nc2ccc(I)cc2F)c(C(=O)NOCCO)c2cccnc21 [Form E]
Relative thermodynamic stability of anhydrous forms [3]: more thermodynamically stable than Form F but less stable than Form A; also recorded: more stable relative to Form F

Relative thermodynamic stability of anhydrous forms [3]: least thermodynamically stable form | Physical stability [4, 7]: stable | Physical stability ([4]; under vacuum at room temperature for 5 days): stable
SMILES: Cn1c(Nc2ccc(I)cc2F)c(C(=O)NOCCO)c2cccnc21 [Form F]

Physical stability ([4]; under vacuum, room temperature for 2 days, damp solids with excess MeOH): disordered mixture of Form H and Form A
SMILES: Cn1c(Nc2ccc(I)cc2F)c(C(=O)NOCCO)c2cccnc21 [Form H]

SMILES: O=C(NOC[C@H](O)CO)c1ccc(F)c(F)c1Nc1ccc(I)cc1F [PD0325901]
Side effects [6]: one or more neurological side effects associated with ataxia, confusion, and syncope; also recorded: neurological side effects associated with ataxia, confusion, and syncope
